Experimental data reported in patent US20230148005A1, “MACROCYCLIC COMPOUNDS AND USES THEREOF” (THESEUS PHARMACEUTICALS, INC., priority 2020, published 2023).
Where two headings read alike, the source gives them in different places.

Columns and labels:
EGFR^L858R/T790M/C^797S = EGFR^L858R/T790M/C^797S (Homo sapiens, UniProt P00533, C797S/L858R/T790M); test: in vitro kinase assay (HTRF KinEASE-TK kit), LTC; assay type: biochemical; details: kinase inhibition
From the text: (§1) Assays using an in vitro kinase assay kit (HTRF KinEASE-TK kit) can be used to study the inhibitory activity of compounds described herein with respect to EGFR mutants such as EGFR^L858R, EGFR^L58R/T790M, and EGFR^L858R/T790M/C^797S.

EGFR^L58R/T790M = EGFR^L58R/T790M (Homo sapiens, UniProt P00533, L858R/T790M); test: in vitro kinase assay (HTRF KinEASE-TK kit), LT; assay type: biochemical; details: kinase inhibition
From the text: as §1

EGFR^L858R = EGFR^L858R (Homo sapiens, UniProt P00533, L858R); test: in vitro kinase assay (HTRF KinEASE-TK kit), L; assay type: biochemical; details: kinase inhibition
From the text: as §1

[1] = target: Ba/F3 EGFR-Del19/T790M/C797S (Homo sapiens, UniProt P00533, T790M/C797S, cells depend on it, form not given); test: Ba/F3 viability assay (CellTiter-Glo), DTC; assay type: cell-based; details: anti-proliferation, read-out: BaF3 DTC IC50
In short: (§2)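 Proliferation inhibition, viability-based; mutant EGFR lines plus parental control.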

Ba/F3 EGFR-Del19/T790M = Ba/F3 EGFR-Del19/T790M (Homo sapiens, UniProt P00533, T790M, cells depend on it, form not given); test: Ba/F3 viability assay (CellTiter-Glo), DT; assay type: cell-based; details: anti-proliferation, read-out: BaF3 DT IC50
In short: as §2

Ba/F3 EGFR-Del19/C797S = Ba/F3 EGFR-Del19/C797S (Homo sapiens, UniProt P00533, C797S, cells depend on it, form not given); test: Ba/F3 viability assay (CellTiter-Glo), DC; assay type: cell-based; details: anti-proliferation, read-out: BaF3 DC IC50
In short: as §2

Ba/F3 Parental = test: Ba/F3 viability assay (CellTiter-Glo), parental; assay type: cell-based
In short: as §2

[2] = Mus musculus, BaF3, anti-proliferation

Sequence of Ba/F3 EGFR-Del19/T790M (P00533 with tags, fused parts or gaps DEL746-750/T790M, form open): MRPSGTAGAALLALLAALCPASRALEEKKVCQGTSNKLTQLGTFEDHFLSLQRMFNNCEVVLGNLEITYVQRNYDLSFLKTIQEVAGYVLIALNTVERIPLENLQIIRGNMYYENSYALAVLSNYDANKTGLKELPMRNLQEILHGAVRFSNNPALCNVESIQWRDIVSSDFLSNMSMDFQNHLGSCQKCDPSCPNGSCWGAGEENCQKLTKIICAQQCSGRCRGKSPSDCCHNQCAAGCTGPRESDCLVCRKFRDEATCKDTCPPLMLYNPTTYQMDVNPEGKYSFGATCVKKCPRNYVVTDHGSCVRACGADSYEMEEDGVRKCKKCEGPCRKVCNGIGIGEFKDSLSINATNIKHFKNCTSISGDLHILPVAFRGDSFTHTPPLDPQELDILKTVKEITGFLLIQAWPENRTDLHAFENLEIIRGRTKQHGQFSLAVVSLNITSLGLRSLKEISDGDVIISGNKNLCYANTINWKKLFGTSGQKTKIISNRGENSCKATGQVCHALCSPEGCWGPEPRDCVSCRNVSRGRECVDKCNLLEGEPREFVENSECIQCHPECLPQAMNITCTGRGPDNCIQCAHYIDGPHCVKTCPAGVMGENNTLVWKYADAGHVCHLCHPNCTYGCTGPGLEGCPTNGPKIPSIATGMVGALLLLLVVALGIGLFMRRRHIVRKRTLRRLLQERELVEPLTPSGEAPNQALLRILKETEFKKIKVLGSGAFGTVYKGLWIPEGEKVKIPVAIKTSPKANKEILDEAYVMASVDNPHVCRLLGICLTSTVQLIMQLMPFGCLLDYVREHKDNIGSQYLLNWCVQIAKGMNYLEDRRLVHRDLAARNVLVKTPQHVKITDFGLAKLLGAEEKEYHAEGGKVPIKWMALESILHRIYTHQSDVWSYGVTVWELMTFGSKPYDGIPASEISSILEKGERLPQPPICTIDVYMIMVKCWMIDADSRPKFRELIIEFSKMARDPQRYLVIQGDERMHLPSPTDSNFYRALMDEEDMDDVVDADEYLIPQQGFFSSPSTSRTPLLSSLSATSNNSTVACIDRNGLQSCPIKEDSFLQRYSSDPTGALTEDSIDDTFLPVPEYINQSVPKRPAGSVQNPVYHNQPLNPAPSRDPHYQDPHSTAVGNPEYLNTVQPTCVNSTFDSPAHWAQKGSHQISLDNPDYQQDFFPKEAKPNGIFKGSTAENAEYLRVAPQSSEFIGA
Sequence of EGFR^L858R (P00533 25-1210 L858R): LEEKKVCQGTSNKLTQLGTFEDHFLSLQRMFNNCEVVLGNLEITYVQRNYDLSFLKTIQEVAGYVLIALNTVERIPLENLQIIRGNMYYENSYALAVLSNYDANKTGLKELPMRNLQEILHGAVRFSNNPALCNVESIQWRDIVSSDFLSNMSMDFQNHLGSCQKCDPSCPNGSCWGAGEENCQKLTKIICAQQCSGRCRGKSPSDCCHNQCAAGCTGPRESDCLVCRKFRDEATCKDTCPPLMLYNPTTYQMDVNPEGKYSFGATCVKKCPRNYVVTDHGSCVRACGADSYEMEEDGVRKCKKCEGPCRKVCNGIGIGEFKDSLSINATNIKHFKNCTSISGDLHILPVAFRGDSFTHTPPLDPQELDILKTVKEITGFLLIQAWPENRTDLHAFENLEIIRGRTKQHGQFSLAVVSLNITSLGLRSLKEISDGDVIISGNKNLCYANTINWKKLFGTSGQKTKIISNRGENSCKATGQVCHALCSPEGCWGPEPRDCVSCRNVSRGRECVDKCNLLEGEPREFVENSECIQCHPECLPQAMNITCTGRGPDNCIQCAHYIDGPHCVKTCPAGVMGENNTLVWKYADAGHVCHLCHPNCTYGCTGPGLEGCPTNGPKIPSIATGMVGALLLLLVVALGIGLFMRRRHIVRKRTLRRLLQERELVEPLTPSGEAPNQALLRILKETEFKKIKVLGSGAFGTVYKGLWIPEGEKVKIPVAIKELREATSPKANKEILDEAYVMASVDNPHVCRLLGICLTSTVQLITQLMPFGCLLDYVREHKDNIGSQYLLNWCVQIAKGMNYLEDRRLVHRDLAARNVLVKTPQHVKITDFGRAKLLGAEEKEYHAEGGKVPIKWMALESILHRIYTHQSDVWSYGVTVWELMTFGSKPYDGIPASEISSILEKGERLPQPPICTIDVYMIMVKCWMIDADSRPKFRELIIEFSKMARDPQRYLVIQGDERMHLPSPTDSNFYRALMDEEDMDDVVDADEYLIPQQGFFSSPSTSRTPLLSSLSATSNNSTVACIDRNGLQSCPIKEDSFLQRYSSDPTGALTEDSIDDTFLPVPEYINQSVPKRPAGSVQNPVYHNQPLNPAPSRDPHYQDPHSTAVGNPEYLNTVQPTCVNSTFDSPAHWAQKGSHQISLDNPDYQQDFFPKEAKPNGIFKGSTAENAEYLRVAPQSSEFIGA
Sequence of EGFR^L58R/T790M (P00533 25-1210 T790M/L858R): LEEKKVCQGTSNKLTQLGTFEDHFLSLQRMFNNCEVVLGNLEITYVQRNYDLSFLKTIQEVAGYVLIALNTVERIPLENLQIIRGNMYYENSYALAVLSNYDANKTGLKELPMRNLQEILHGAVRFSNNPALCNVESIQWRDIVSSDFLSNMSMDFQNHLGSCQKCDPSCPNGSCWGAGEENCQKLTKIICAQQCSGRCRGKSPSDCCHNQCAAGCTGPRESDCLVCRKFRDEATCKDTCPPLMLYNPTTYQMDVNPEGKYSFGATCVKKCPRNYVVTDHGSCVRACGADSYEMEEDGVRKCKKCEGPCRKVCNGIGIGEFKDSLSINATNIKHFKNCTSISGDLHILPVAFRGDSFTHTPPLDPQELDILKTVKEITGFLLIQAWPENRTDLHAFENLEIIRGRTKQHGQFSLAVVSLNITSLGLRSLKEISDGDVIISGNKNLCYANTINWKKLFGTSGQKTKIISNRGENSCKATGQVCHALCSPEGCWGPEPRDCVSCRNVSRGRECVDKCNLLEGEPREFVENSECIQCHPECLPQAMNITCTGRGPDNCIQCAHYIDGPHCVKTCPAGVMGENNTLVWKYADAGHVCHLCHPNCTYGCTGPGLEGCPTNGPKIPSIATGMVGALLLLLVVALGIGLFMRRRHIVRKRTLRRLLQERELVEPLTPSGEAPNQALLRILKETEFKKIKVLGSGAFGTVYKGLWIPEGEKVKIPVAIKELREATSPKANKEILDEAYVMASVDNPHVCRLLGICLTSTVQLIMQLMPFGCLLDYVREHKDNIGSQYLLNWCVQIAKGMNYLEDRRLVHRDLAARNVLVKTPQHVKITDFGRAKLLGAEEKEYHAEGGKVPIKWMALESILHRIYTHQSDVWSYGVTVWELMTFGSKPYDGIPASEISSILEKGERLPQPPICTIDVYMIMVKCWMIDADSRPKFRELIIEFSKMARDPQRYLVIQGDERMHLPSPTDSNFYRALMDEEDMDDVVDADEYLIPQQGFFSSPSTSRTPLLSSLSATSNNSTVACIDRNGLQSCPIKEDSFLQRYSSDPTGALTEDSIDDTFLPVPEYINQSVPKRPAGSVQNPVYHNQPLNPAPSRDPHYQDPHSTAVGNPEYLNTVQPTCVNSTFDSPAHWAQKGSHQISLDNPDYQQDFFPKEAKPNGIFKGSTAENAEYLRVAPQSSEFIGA
Sequence of EGFR^L858R/T790M/C^797S (P00533 25-1210 T790M/C797S/L858R): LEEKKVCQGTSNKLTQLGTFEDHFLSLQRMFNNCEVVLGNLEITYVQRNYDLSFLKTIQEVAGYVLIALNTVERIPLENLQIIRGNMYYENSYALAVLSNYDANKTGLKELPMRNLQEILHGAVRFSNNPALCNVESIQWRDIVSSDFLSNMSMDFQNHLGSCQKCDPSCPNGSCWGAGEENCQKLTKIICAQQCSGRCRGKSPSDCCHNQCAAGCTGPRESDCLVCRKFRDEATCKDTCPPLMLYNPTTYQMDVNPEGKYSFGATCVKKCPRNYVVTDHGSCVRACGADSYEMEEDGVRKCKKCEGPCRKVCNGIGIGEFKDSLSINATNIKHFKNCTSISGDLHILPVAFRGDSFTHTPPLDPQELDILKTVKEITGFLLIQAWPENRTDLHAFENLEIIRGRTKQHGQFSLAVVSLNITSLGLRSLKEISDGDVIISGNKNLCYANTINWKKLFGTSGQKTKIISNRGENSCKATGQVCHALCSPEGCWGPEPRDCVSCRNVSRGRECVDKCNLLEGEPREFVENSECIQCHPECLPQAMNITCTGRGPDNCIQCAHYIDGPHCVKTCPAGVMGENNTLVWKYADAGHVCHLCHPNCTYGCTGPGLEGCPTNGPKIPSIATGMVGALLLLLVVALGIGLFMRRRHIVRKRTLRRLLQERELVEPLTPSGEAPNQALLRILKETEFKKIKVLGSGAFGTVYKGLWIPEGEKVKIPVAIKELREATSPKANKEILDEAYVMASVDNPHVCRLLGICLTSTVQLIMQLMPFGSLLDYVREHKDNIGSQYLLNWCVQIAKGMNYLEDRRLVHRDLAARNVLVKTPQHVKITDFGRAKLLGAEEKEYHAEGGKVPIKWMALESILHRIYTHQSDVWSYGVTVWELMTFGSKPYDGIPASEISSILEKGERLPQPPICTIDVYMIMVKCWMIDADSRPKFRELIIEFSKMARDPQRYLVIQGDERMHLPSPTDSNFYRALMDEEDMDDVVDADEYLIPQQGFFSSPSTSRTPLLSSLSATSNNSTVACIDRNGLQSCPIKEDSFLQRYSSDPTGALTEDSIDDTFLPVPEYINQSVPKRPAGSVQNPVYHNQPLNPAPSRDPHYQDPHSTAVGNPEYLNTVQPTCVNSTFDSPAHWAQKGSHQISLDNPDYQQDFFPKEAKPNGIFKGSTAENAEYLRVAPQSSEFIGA

Compound | IC50 (EGFR^L858R/T790M/C^797S) | IC50 (EGFR^L58R/T790M) | IC50 (EGFR^L858R) | GI50 [1] | GI50 (Ba/F3 EGFR-Del19/T790M) | GI50 (Ba/F3 EGFR-Del19/C797S) | IC50 (Ba/F3 Parental; [2]) | IC50 (Ba/F3 Parental; anti-proliferation, read-out: BaF3 parental IC50)
CCN(CC)CCOc1ccc(C)c(-c2nn3c4cc(ncc24)Nc2ccnc(n2)-c2cnn(C)c2OCC[C@@H]3C)c1 [(159)] | 10 to 100 nM | 10 to 100 nM | 100 to 1000 nM | 100 to 1000 nM | 100 to 1000 nM | 100 to 1000 nM | 100 to 1000 nM | –
C[C@H]1CCOc2c(cnn2C)-c2nccc(n2)Nc2cc3c(cn2)c(-c2cccc(N4CC[C@@H](N(C)C)C4)c2)nn31 [(166)] | < 10 nM | < 10 nM | < 10 nM | < 10 nM | < 10 nM | < 10 nM | 100 to 1000 nM | –
C[C@H]1CCOc2c(cnn2C)-c2nccc(n2)Nc2cc3c(cn2)c(-c2cccc(N4CC[C@H](N(C)C)C4)c2)nn31 [(167)] | < 10 nM | < 10 nM | < 10 nM | < 10 nM | < 10 nM | < 10 nM | 100 to 1000 nM | –
Cc1cc(-c2nn3c4cc(ncc24)Nc2ccnc(n2)-c2cnn(C)c2OCC[C@@H]3C)oc1CN(C)C [(168)] | < 10 nM | < 10 nM | < 10 nM | < 10 nM | < 10 nM | < 10 nM | 100 to 1000 nM | –
C[C@H]1CCOc2c(cnn2C)-c2nccc(n2)Nc2cc3c(cn2)c(N2CC[C@H](CN(C)CCF)C2)nn31 [(169)] | < 10 nM | < 10 nM | < 10 nM | < 10 nM | < 10 nM | < 10 nM | 100 to 1000 nM | –
C[C@H]1CCOc2c(cnn2C)-c2nccc(n2)Nc2cc3c(cn2)c(N2CC[C@H](N(C)CCF)C2)nn31 [(170)] | < 10 nM | < 10 nM | < 10 nM | < 10 nM | 10 to 100 nM | 10 to 100 nM | 100 to 1000 nM | –
Cc1nc(-c2nn3c4cc(ncc24)Nc2ccnc(n2)-c2cnn(C)c2OCC[C@@H]3C)sc1CN(C)C [(171)] | < 10 nM | < 10 nM | < 10 nM | 10 to 100 nM | 10 to 100 nM | 10 to 100 nM | 100 to 1000 nM | –
C[C@H]1CCOc2c(cnn2C)-c2nccc(n2)Nc2cc3c(cn2)c(-c2ccc(CN4CCN(C)CC4)cc2)nn31 [(172)] | < 10 nM | < 10 nM | < 10 nM | < 10 nM | < 10 nM | < 10 nM | 10 to 100 nM | –
C[C@H]1CCOc2c(cnn2C)-c2nccc(n2)Nc2cc3c(cn2)c(-c2cccc(N4CCC(N5CCN(C)CC5)CC4)c2)nn31 [(173)] | < 10 nM | < 10 nM | < 10 nM | < 10 nM | < 10 nM | < 10 nM | 100 to 1000 nM | –
Cc1nc(-c2nn3c4cc(ncc24)Nc2ccnc(n2)-c2cnn(C)c2OCC[C@@H]3C)sc1CN1CCOCC1 [(174)] | < 10 nM | < 10 nM | < 10 nM | < 10 nM | < 10 nM | < 10 nM | 100 to 1000 nM | –
C[C@H]1CCOc2c(cnn2C)-c2nccc(n2)Nc2cc3c(cn2)c(N2CC[C@@H](CN(C)CCF)C2)nn31 [(175)] | < 10 nM | < 10 nM | < 10 nM | < 10 nM | < 10 nM | < 10 nM | 10 to 100 nM | –
C[C@H]1CCOc2c(cnn2C)-c2nccc(n2)Nc2cc3c(cn2)c(-c2ccc(CN(C)C)cc2)nn31 [(176)] | < 10 nM | < 10 nM | < 10 nM | < 10 nM | < 10 nM | 10 to 100 nM | 100 to 1000 nM | –
C[C@H]1CCOc2c(cnn2C)-c2nccc(n2)Nc2cc3c(cn2)c(-c2cccc(CN4CCOCC4)c2)nn31 [(177)] | < 10 nM | < 10 nM | 10 to 100 nM | < 10 nM | 10 to 100 nM | 10 to 100 nM | 100 to 1000 nM | –
C[C@H]1CCOc2c(cnn2C)-c2nccc(n2)Nc2cc3c(cn2)c(N2CC[C@H](N(C)C)C2)nn31 [(178)] | < 10 nM | < 10 nM | 10 to 100 nM | < 10 nM | 10 to 100 nM | 10 to 100 nM | 100 to 1000 nM | –
C[C@H]1CCOc2c(cnn2C)-c2nccc(n2)Nc2cc3c(cn2)c(N2CC[C@@H](N(C)CCF)C2)nn31 [(179)] | < 10 nM | < 10 nM | < 10 nM | < 10 nM | < 10 nM | 10 to 100 nM | 100 to 1000 nM | –
C[C@H]1CCOc2c(cnn2C)-c2nccc(n2)Nc2cc3c(cn2)c(N2CC[C@H](N(C)CCCF)C2)nn31 [(180)] | < 10 nM | < 10 nM | 10 to 100 nM | < 10 nM | 10 to 100 nM | 10 to 100 nM | 100 to 1000 nM | –
C[C@H]1CCOc2c(cnn2C)-c2nccc(n2)Nc2cc3c(cn2)c(N2CC[C@@H](N(C)C)C2)nn31 [(181)] | < 10 nM | < 10 nM | < 10 nM | 10 to 100 nM | 10 to 100 nM | 10 to 100 nM | – | 100 to 1000 nM
C[C@H]1CCOc2c(cnn2C)-c2nccc(n2)Nc2cc3c(cn2)c(-c2cccc(CN(C)C)n2)nn31 [(182)] | < 10 nM | < 10 nM | 10 to 100 nM | < 10 nM | 10 to 100 nM | 10 to 100 nM | 100 to 1000 nM | –
C[C@H]1CCOc2c(cnn2C)-c2nccc(n2)Nc2cc3c(cn2)c(-c2cc(CN(C)C)ccn2)nn31 [(183)] | < 10 nM | < 10 nM | < 10 nM | < 10 nM | 10 to 100 nM | 10 to 100 nM | 100 to 1000 nM | –

More lines, main results first:

IC50 (EGFR^L858R/T790M/C^797S) | IC50 (EGFR^L58R/T790M) | IC50 (EGFR^L858R) | Compound | GI50 [1] | GI50 (Ba/F3 EGFR-Del19/T790M) | GI50 (Ba/F3 EGFR-Del19/C797S) | IC50 (Ba/F3 Parental; [2]) | IC50 (Ba/F3 Parental; anti-proliferation, read-out: BaF3 parental IC50)
< 10 nM | < 10 nM | < 10 nM | CCN(CC)CCOc1cc(-c2nn3c4cc(ncc24)Nc2ccnc(n2)-c2cnn(C)c2OCC[C@@H]3C)ccc1Cl [(153)] | 10 to 100 nM | 10 to 100 nM | 10 to 100 nM | 100 to 1000 nM | –
< 10 nM | < 10 nM | < 10 nM | C[C@H]1CCOc2c(cnn2C)-c2nccc(n2)Nc2cc3c(cn2)c(-c2ccc(F)c(OCCN4CCOCC4)c2)nn31 [(154)] | < 10 nM | 10 to 100 nM | 10 to 100 nM | 100 to 1000 nM | –
< 10 nM | < 10 nM | < 10 nM | C[C@H]1CCOc2c(cnn2C)-c2nccc(n2)Nc2cc3c(cn2)c(-c2nn(C)cc2CCN(C)C)nn31 [(155)] | 10 to 100 nM | 10 to 100 nM | 10 to 100 nM | ≥ 1000 nM | –
< 10 nM | < 10 nM | < 10 nM | CCn1cc(-c2nn3c4cc(ncc24)Nc2ccnc(n2)-c2cnn(C)c2OCC[C@@H]3C)cc1CN(C)C [(156)] | < 10 nM | < 10 nM | < 10 nM | 100 to 1000 nM | –
< 10 nM | < 10 nM | < 10 nM | C[C@H]1CCOc2c(cnn2C)-c2nccc(n2)Nc2cc3c(cn2)c(-c2ncc(CN(C)C)s2)nn31 [(157)] | < 10 nM | 10 to 100 nM | 10 to 100 nM | 100 to 1000 nM | –
< 10 nM | < 10 nM | 100 to 1000 nM | CCN(CC)CCOc1cccc(-c2nn3c4cc(ncc24)Nc2ccnc(n2)-c2cnn(C)c2OCC[C@@H]3C)c1C [(158)] | 100 to 1000 nM | 100 to 1000 nM | 100 to 1000 nM | 100 to 1000 nM | –
< 10 nM | < 10 nM | < 10 nM | C[C@H]1CCOc2c(cnn2C)-c2nccc(n2)Nc2cc3c(cn2)c(-c2cccc(N4CCC(N5CCOCC5)CC4)c2)nn31 [(160)] | < 10 nM | < 10 nM | 10 to 100 nM | 100 to 1000 nM | –
< 10 nM | < 10 nM | < 10 nM | CCN1CCc2c(cc(-c3nn4c5cc(ncc35)Nc3ccnc(n3)-c3cnn(C)c3OCC[C@@H]4C)n2C)C1C (stereo partly shown) [(161)] | < 10 nM | < 10 nM | 10 to 100 nM | 100 to 1000 nM | –
< 10 nM | < 10 nM | < 10 nM | C[C@H]1CCOc2c(cnn2C)-c2nccc(n2)Nc2cc3c(cn2)c(-c2ccc(CN(C)C)o2)nn31 [(162)] | < 10 nM | < 10 nM | < 10 nM | 100 to 1000 nM | –
< 10 nM | < 10 nM | < 10 nM | C[C@H]1CCOc2c(cnn2C)-c2nccc(n2)Nc2cc3c(cn2)c(-c2cccc(CCN4CCOCC4)c2)nn31 [(163)] | < 10 nM | 10 to 100 nM | 10 to 100 nM | 100 to 1000 nM | –
< 10 nM | < 10 nM | < 10 nM | C[C@H]1CCOc2c(cnn2C)-c2nccc(n2)Nc2cc3c(cn2)c(-c2ccc(CN4CCOCC4)o2)nn31 [(164)] | < 10 nM | < 10 nM | 10 to 100 nM | 100 to 1000 nM | –
< 10 nM | < 10 nM | < 10 nM | C[C@H]1CCOc2c(cnn2C)-c2nccc(n2)Nc2cc3c(cn2)c(-c2cccc(CN(C)C)c2)nn31 [(165)] | < 10 nM | < 10 nM | < 10 nM | 100 to 1000 nM | –
